Key:
[1] = test system: RAW264.7 cells; experiment: NO production induced by LPS and IFN-γ in RAW264.7 cells (NO2− in medium, Griess); assay type: cell-based; details: 10 μl of 5 mM oligosaccharide solution per 500 μl well, added 0.5 or 5 hours before LPS and IFN-γ; 12 hours; FIG. 1
Method: RAW264.7 cells (ATCC TIB 71) were suspended in Dulbecco's modified Eagle's medium (Bio Whittaker, 12-917F) without Phenol Red containing 10% fetal calf serum and 2 mM L-glutamine (Life Technologies Oriental, Code. 25030-149) at a concentration of 3×10^5 cells/ml. 500 μl of the suspension was added to each well of a 48-well microtiter plate and the plate was incubated at 37° C. for 6 hours in the presence of 5% CO2. 10 μl of a filter-sterilized oligosaccharide solution containing agarobiose, agarotetraose or agarohexaose prepared in Referential Example 1 at a concentration of 5 mM in water was added to the well. The plate was incubated for additional 0.5 or 5 hours. 10 μl of aqueous solution containing lipopolysaccharide (LPS, Sigma, Code. L-2012) at a concentration of 5 μg/ml and interferon-γ (IFN-γ, sold by Cosmobio, Code. GZM-MG-IFN) at a concentration of 2000 U/ml was added to the well. The plate was incubated for additional 12 hours. The concentration of […] resulting from oxidation of NO in the medium was then measured.
As control groups, a group to which LPS or IFN-γ was not added and a group to which agarobiose, agarotetraose or agarohexaose was not added were provided.
After cultivation, 100 μl of 4% Griess' reagent (Sigma, Code. G4410) was added to 100 μl of the culture supernatant, and the mixture was allowed to stand for 15 minutes at room temperature. The absorbance at 490 nm was then measured. NO2^− concentration in the medium was calculated with reference to a calibration curve prepared by using NaNO2 dissolved in the same medium at a predetermined concentration. All of the measurements were carried out in triplicate.

[2] = test system: HL-60 Nu cells; experiment: TPA-induced intracellular peroxides in HL-60 Nu (neutrophil-like) cells; assay type: cell-based; details: 50 μl of 5 mM solution, 2 hours before TPA; 5 hours; FIG. 2
Method: HL-60 cells were added to RPMI 1640 medium (Bio Whittaker, Code. 12-702F) containing 10% fetal calf serum and 1.3% dimethyl sulfoxide (Dojindo Laboratories, Code. 346-03615) and cultured at 37° C. for 1 week in the presence of 5% CO2 to prepare cells differentiated into neutrophil-like cells (hereinafter referred to as HL-60 Nu).
Agarobiose, agarotetraose or agarohexaose obtained in Referential Example 1 was dissolved in water at a concentration of 5 mM. The solution was sterilized by filtration. HL-60 Nu cells were suspended in RPMI 1640 medium containing 10% fetal calf serum at a concentration of 2.5×10^5 cells/2.4 ml. 50 μl of one of the oligosaccharide aqueous solutions was added to a well containing the cells. The cells were cultured at 37° C. for 2 hours in the presence of 5% CO2. Then, 50 μl of a solution containing phorbol 12-myristate 13-acetate (TPA, Gibco, Code. 13139-019) at a concentration of 5 mg/ml in water was added the well. After the cells were cultured for additional 5 hours, intracellular peroxides were determined. As control groups, a group to which TPA was not added and a group to which agarobiose, agarotetraose or agarohexaose as not added were provided.
After cultivation, 10 μl of a solution containing 2′,7′-dichlorofluorescein diacetate (Sigma, Code. D6833) at a concentration of 5 mM in dimethyl sulfoxide was added to the well. The cells were cultured for additional 30 minutes. The cells were then collected by centrifugation and washed twice in phosphate buffered saline. 2′, 7′-dichlorofluorescein, which is generated in proportion to the amount of intracellular peroxides, was determined using FACScan as described in Saibo Kogaku, Bessatsu (Cell Technology, Suppl.) Jikken Protocol Series: Kassei Sanso Jikken Protocol (Experimental Protocol Series: Experimental Protocols for Active Oxigen) (1994, Shujun-sha) pp. 51-54.

[3] = test system: RAW264.7 cells; experiment: LPS-induced prostaglandin E2 production in RAW264.7 cells; assay type: cell-based; details: 10 μl of 5 mM solution per 500 μl well, 0.5 or 5 hours before LPS; 12 hours; FIG. 3
Method: RAW264.7 cells (ATCC TIB 71) were suspended in Dulbecco's modified Eagle's medium (Bio Whittaker, Code. 12-604F) containing 10% fetal calf serum at a concentration of 3×10^5 cells/ml. 500 μl of the suspension was added to each well of a 48-well microtiter plate and the plate was incubated at 37° C. for 6 hours in the presence of 5% CO2. 10 μl of a filter-sterilized agarooligosaccharide solution containing agarobiose, agarotetraose or agarohexaose prepared in Referential Example 1 at a concentration of 5 mM in water was added to the well. The plate was incubated for additional 0.5 or 5 hours. 10 μl of 50 μg/ml LPS aqueous solution was then added to the well. After the plate was incubated for additional 12 hours, the amount of prostaglandin E2 was measured. As control groups, a group to which LPS was not added and a group to which agarobiose, agarotetraose or agarohexaose was not added were provided.
After cultivation, the amount of prostaglandin E2 in the culture supernatant was measured using Prostaglandin E2 ELISA Kit (Neogen, Code. 404110). All of the measurements were carried out in triplicate.

[4] = test system: α-glucosidase; experiment: α-glucosidase inhibition with p-nitrophenyl-α-D-glucopyranoside; assay type: biochemical, S. cerevisiae
Method: (1) An α-glucosidase activity was measured by allowing α-glucosidase to act on p-nitrophenyl-α-D-glucopyranoside (a chromogenic substrate) and calorimetrically quantifying 4-nitrophenol released by hydrolysis.
10 μl of α-glucosidase solution [40 mU/ml, derived from S. cerevisiae, Sigma, dissolved in 10 mM phosphate buffer (pH 7.2 at 37° C.)] and 10 μl of a solution containing a test sample dissolved in 10 mM phosphate buffer (pH 7.2 at 37° C.) were mixed. 80 μl of a 1.5 mg/ml substrate solution [Sigma, dissolved in 10 mM phosphate buffer (pH 7.2 at 37° C.)] was added thereto to initiate the reaction. After reacting at 37° C. for 40 minutes, the absorbance at 410 nm was measured using Shimadzu uv2200. The remaining activity therein was calculated defining the activity observed without the addition of test sample as 100%.
Agarobiose, agarotetraose, agarohexaose and agarooctaose used as test samples were those prepared in Referential Example 1. Commercially available products of anhydrogalactose (Funakoshi), neoagarobiose (Sigma), neoagarotetraose (Funakoshi) and neoagarohexaose (Funakoshi) were used.

Structure (SMILES) | NO production induced by LPS and IFN-γ [1] | TPA-induced generation of intracellular peroxides [2] | prostaglandin E2 production induced by LPS [3] | Activity of inhibiting α-glucosidase (% remaining activity) ([4]; 5 μM) | Activity of inhibiting α-glucosidase (% remaining activity) ([4]; 50 μM) | Activity of inhibiting α-glucosidase (% remaining activity) ([4]; 500 μM) | Activity of inhibiting α-glucosidase (% remaining activity) ([4]; 1000 μM) | Activity of inhibiting α-glucosidase (% remaining activity) ([4]; 5000 μM)
OCC1OC(OC2C3COC2C(O)C(OC2C(O)C(CO)OC(OC4C5COC4C(O)C(OC4C(O)C(CO)OC(OC6C7COC6C(O)C(O)O7)C4O)O5)C2O)O3)C(O)C(O)C1O (stereo not drawn) [Agarohexaose, agarohexaose] | inhibited NO production induced by LPS and IFN-γ | inhibition of TPA-induced generation of intracellular peroxides was observed | inhibited the prostaglandin E2 production induced by LPS | 91% | 91% | 47% | 35% | 7%
OCC1OC(OC2C3COC2C(O)C(OC2C(O)C(CO)OC(OC4C5COC4C(O)C(O)O5)C2O)O3)C(O)C(O)C1O (stereo not drawn) [Agarotetraose, agarotetraose] | inhibited NO production induced by LPS and IFN-γ | Slight inhibition | inhibited the prostaglandin E2 production induced by LPS | 100% | 97% | 75% | 32% | 20%
OC[C@H]1O[C@@H](O[C@H]2[C@H]3OC[C@@H]2OC(O)[C@H]3O)[C@H](O)[C@@H](O)[C@H]1O (mixture of isomers) [Agarobiose, agarobiose] | inhibited NO production induced by LPS and IFN-γ | Slight inhibition | inhibited the prostaglandin E2 production induced by LPS | 100% | 100% | 100% | 100% | 100%
